Literature values as cited in patent US10010615B2 (KemPharm, Inc., priority 2009, dated 2018).

Columns and labels:
human NET = human NET (Homo sapiens, UniProt P23975); settings: relative to quetiapine
leptin = settings: chronic oral administration for 6 weeks

Chain of human NET (P23975 whole entry): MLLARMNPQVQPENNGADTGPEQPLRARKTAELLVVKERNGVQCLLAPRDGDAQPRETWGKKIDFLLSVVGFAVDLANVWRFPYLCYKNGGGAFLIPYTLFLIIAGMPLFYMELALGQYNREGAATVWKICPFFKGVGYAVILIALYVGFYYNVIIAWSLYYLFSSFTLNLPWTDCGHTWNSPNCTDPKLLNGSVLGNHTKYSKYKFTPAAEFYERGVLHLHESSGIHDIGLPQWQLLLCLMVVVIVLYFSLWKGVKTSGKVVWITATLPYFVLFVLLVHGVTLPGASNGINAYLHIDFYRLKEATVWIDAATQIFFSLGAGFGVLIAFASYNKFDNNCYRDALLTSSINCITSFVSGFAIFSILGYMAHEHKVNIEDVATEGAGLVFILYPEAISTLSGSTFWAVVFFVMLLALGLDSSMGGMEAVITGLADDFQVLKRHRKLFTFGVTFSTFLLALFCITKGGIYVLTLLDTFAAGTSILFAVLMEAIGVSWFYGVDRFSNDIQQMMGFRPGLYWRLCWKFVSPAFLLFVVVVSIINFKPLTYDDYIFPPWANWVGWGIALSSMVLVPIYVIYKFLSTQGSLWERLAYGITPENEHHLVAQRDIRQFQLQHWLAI

increase in leptin release (leptin) | Compound | higher avidity for inhibiting human NET than quetiapine (human NET)
– | c1ccc2c(c1)N=C(N1CCNCC1)c1ccccc1S2 [N-desalkyl-quetiapine, 4-(dibenzo[b,f][1,4]thiazepin-11-yl)piperazine] | about 100 fold
about 37% | OCCOCCN1CCN(C2=Nc3ccccc3Sc3ccccc32)CC1 [quetiapine, 2-(2-(4-(dibenzo[b,f][1,4]thiazepin-11-yl)piperazin-1-yl)ethoxy)ethanol] | –
